Source: ChEMBL document CHEMBL6177980 (J Med Chem, 2025)
Calls of active or inactive are those of the source. The rule behind the calls is not given here.

Assays:
[1] = tested on: Mammarenavirus choriomeningitidis; assay: Antiviral activity against LCMV infected in C57BL/6-Prf1tm1Sdz/J mouse assessed as reduction in viral copy number in kidney treated orally once daily for 7 days by RT-qPCR analysis; assay type: functional, organism-based; details: dose 1-5 mg/kg, route po, time 7.0 day
[2] = Cytotoxicity against African green monkey Vero cells; assay type: toxicity, cell-based; details: chlorocebus sabaeus
[3] = Stability of compound at pH 4.0 assessed as change in purity at 1 mg/ml incubated for 12 hrs by HPLC analysis; assay type: physicochemical; details: buffer, pH 4, 12 h
[4] = Prodrug conversion in Beagle dog assessed as Cmax of 4'-Fluorouridine metabolite at 3 mg/kg/day, po treated for 7 days by LC-MS/MS analysis; assay type: ADME, organism-based, Canis lupus familiaris; details: in vivo, 168 h, time 7 day
[5] = Stability in SIF assessed as compound degradation measured for 24 hrs by HPLC analysis; assay type: physicochemical; details: simulated intestinal fluid (SIF), read-out: Drug degradation
[6] = Stability of compound at pH 1.5 assessed as change in purity at 1 mg/ml incubated for 24 hrs by HPLC analysis; assay type: physicochemical; details: buffer, pH 1.5, 24 h
[7] = Prodrug conversion in Beagle dog assessed as Cmax of 4'-Fluorouridine metabolite at 3 mg/kg, po by LC-MS/MS analysis; assay type: ADME, organism-based, Canis lupus familiaris; details: in vivo
[8] = tested on: Mammarenavirus choriomeningitidis; assay: In vivo antiviral activity against LCMV infected in C57BL/6-Prf1tm1Sdz/J mouse assessed as void of inflammatory cell inflammation in spleen at 1 to 5 mg/kg, po qd for 7 days; assay type: functional, organism-based; details: dose 1-5 mg/kg, time 7.0 day
[9] = Prodrug conversion in Sprague-Dawley rat assessed as 4'-Fluorouridine metabolite formation in brain at 6 mg/kg, po measured for 0.5 to 24 hrs by LC-MS/MS analysis; assay type: ADME, organism-based; details: in vivo, time 0.5-24 hrs
[10] = Prodrug conversion in Sprague-Dawley rat liver microsomes assessed as parent nucleoside metabolite formation at 1 uM measured up to 60 mins in presence of NADPH/UDPGA by LC-MS/MS analysis; assay type: ADME, Microsome; details: 1 h
[11] = Prodrug conversion in Sprague-Dawley rat assessed as 4'-Fluorouridine metabolite formation in stomach at 6 mg/kg, po measured for 0.5 to 24 hrs by LC-MS/MS analysis; assay type: ADME, organism-based; details: in vivo, time 0.5-24 hrs
[12] = tested on: Mammarenavirus choriomeningitidis; assay: In vivo antiviral activity against LCMV infected in C57BL/6-Prf1tm1Sdz/J mouse assessed as improvement in body weight loss at 1 to 5 mg/kg, po qd treated for 7 days; assay type: functional, organism-based; details: dose 1-5 mg/kg, time 7.0 day
[13] = tested on: Mammarenavirus choriomeningitidis; assay: In vivo antiviral activity against LCMV infected in C57BL/6-Prf1tm1Sdz/J mouse assessed as animal survival rate at 1 to 5 mg/kg, po qd treated for 7 days relative to control; assay type: functional; details: dose 1-5 mg/kg, time 7 day
[14] = Prodrug conversion in C57BL/6J mouse assessed as Cmax of 4'-Fluorouridine metabolite at 20 mg/kg, po by LC-MS/MS analysis; assay type: ADME, organism-based; details: in vivo
[15] = Prodrug conversion in Sprague-Dawley rat assessed as 4'-Fluorouridine metabolite formation in lung at 6 mg/kg, po measured for 0.5 to 24 hrs by LC-MS/MS analysis; assay type: ADME, organism-based; details: in vivo, time 0.5-24 hrs
[16] = Cmax in fasted Cynomolgus monkey at 11.6 mg/kg, po by LC-MS/MS analysis; assay type: ADME, organism-based, Macaca fascicularis; details: in vivo
[17] = tested on: Mammarenavirus choriomeningitidis; assay: In vivo antiviral activity against LCMV infected in C57BL/6-Prf1tm1Sdz/J mouse assessed as improvement in platelet count at 1 to 5 mg/kg, po qd treated for 7 days; assay type: functional, organism-based; details: dose 1-5 mg/kg, time 7.0 day
[18] = Prodrug conversion in C57BL/6J mouse assessed as half life of 4'-Fluorouridine metabolite treated orally by LC-MS/MS analysis; assay type: ADME; details: in vivo, po
[19] = Prodrug conversion in Sprague-Dawley rat assessed as AUC (0 to t) of 4'-Fluorouridine metabolite at 2 mg/kg, iv by LC-MS/MS analysis; assay type: ADME, organism-based; details: in vivo
[20] = Prodrug conversion in C57BL/6J mouse plasma assessed as parent nucleoside metabolite formation at 1 uM measured up to 60 mins by LC-MS/MS analysis; assay type: ADME, cell-free; details: 1 h
[21] = tested on: Mammarenavirus choriomeningitidis; assay: Antiviral activity against LCMV infected in C57BL/6-Prf1tm1Sdz/J mouse assessed as reduction in viral titer in kidney treated orally once daily for 7 days by RT-qPCR analysis; assay type: functional, organism-based; details: dose 1-5 mg/kg, route po, time 7.0 day
[22] = Prodrug conversion in C57BL/6J mouse assessed as AUC (0 to t) of 4'-Fluorouridine metabolite at 2 mg/kg, po by LC-MS/MS analysis; assay type: ADME, organism-based; details: in vivo
[23] = Prodrug conversion in Beagle dog assessed as AUC (0 to t) of 4'-Fluorouridine metabolite at 1 mg/kg, iv by LC-MS/MS analysis; assay type: ADME, organism-based, Canis lupus familiaris; details: in vivo
[24] = Prodrug conversion in Beagle dog assessed as volume of distribution at steady state of 4'-Fluorouridine metabolite treated orally or intravenously by LC-MS/MS analysis; assay type: ADME, Canis lupus familiaris; details: in vivo, po
[25] = Prodrug conversion in Sprague-Dawley rat assessed as 4'-Fluorouridine metabolite formation in kidney at 6 mg/kg, po measured for 0.5 to 24 hrs by LC-MS/MS analysis; assay type: ADME, organism-based; details: in vivo, time 0.5-24 hrs
[26] = Prodrug conversion in Sprague-Dawley rat liver microsomes assessed as parent nucleoside metabolite formation at 1 uM measured up to 60 mins in presence of BNPP/NADPH/UDPGA by LC-MS/MS analysis; assay type: ADME, Microsome; details: 1 h
[27] = Prodrug conversion in C57BL/6J mouse liver microsomes assessed as parent nucleoside metabolite formation at 1 uM measured up to 60 mins in presence of NADPH/UDPGA by LC-MS/MS analysis; assay type: ADME, Microsome; details: 1 h
[28] = Prodrug conversion in Sprague-Dawley rat assessed as volume of distribution at steady state of 4'-Fluorouridine metabolite treated orally or intravenously by LC-MS/MS analysis; assay type: ADME; details: in vivo, po
[29] = tested on: Mammarenavirus choriomeningitidis; assay: Antiviral activity against LCMV infected in C57BL/6-Prf1tm1Sdz/J mouse assessed as reduction in viral titer in lung treated orally once daily for 7 days by RT-qPCR analysis; assay type: functional, organism-based; details: dose 1-5 mg/kg, route po, time 7.0 day
[30] = Prodrug conversion in Sprague-Dawley rat assessed as 4'-Fluorouridine metabolite formation in small intestine at 6 mg/kg, po measured for 0.5 to 24 hrs by LC-MS/MS analysis; assay type: ADME, organism-based; details: in vivo, time 0.5-24 hrs
[31] = Prodrug conversion in Sprague-Dawley rat assessed as Cmax of 4'-Fluorouridine metabolite at 6 mg/kg/day, po treated for 7 days by LC-MS/MS analysis; assay type: ADME, organism-based; details: in vivo, 168 h, time 7 day
[32] = Prodrug conversion in C57BL/6J mouse assessed as AUC (0 to t) of 4'-Fluorouridine metabolite at 6 mg/kg, po by LC-MS/MS analysis; assay type: ADME, organism-based; details: in vivo
[33] = Prodrug conversion in C57BL/6J mouse assessed as Cmax of 4'-Fluorouridine metabolite at 2 mg/kg, po by LC-MS/MS analysis; assay type: ADME, organism-based; details: in vivo
[34] = Prodrug conversion in C57BL/6J mouse plasma assessed as parent nucleoside metabolite formation administered orally or intravenously; assay type: ADME, cell-free; details: po
[35] = Prodrug conversion in Sprague-Dawley rat assessed as half life of 4'-Fluorouridine metabolite treated orally or intravenously by LC-MS/MS analysis; assay type: ADME; details: in vivo, po

CC(C)C(=O)OC[C@@]1(F)O[C@@H](n2ccc(=O)n(COC(=O)c3cccnc3)c2=O)[C@H](OC(=O)C(C)C)[C@@H]1OC(=O)C(C)C
Activity [1]: Dose-dependent-effect
CC50 [2]: > 100 µM
Activity [3]: 0%
Cmax [4]: 411 ng/mL
degraded at 24 h [5]: < 5%
Activity [6]: -9.2%
Cmax [7]: 495 ng/mL
Activity [8]: Active
Drug metabolism [9]: metabolite_detected
Drug metabolism [10]: metabolite_detected
Drug metabolism [11]: metabolite_detected
Activity [12]: Active
Survival [13]: 100%
Cmax [14]: 788 ng/mL
Drug metabolism [15]: metabolite_detected
Cmax [16]: 2390 ng/mL
Activity [17]: Active
t1/2 [18]: 12 h
AUCt [19]: 1056 ng·h/mL
Drug metabolism [20]: metabolite_detected
Activity [21]: Dose-dependent-effect
AUCt [22]: 826 ng·h/mL
AUCt [23]: 282 ng·h/mL
Vdss [24]: 3.07 L/kg
Drug metabolism [25]: metabolite_detected
Drug metabolism [26]: metabolite_notdetected
Drug metabolism [27]: metabolite_detected
Vdss [28]: 24.3 L/kg
Activity [29]: Dose-dependent-effect
Drug metabolism [30]: metabolite_detected
Cmax [31]: 383 ng/mL
AUCt [32]: 1729 ng·h/mL
Cmax [33]: 57 ng/mL
Drug metabolism [34]: metabolite_detected
t1/2 [35]: 15 h
